Read-outs that look alike come from different tables or passages of the source.
Tests used:
Assay type in all cases: in vivo
[1] = system: Phytophthora infestans (the causal agent of tomato late blight); test: whole plant or invertebrate; details: for pest or weed control at 40 ppm: Phytophthora infestans, 96 h, read-out: Percent Disease Control, Test C
[2] = system: Plasmopara vilicola (the causal agent of grape downy mildew); test: Test A: grape downy mildew, test suspension sprayed on grape seedlings after inoculation, visual disease rating; details: for pest or weed control at 40 ppm: Plasmopara, 144 h, read-out: Percent Disease Control, Test A
In short: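 Curative spray: spores applied first, plants kept 24 h in saturated air at 20 °C and dried before treatment, then 5 days at 20 °C plus 24 h saturated. Suspension: acetone (3% of volume) in 1:1 acetone/water, 250 ppm Trem 014, sprayed to run-off (200 ppm ≈ 500 g/ha); visual 0–100 control rating.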

[3] = system: Phytophthora infestans (the causal agent of tomato late blight); test: whole plant or invertebrate; details: for pest or weed control at 40 ppm: Phytophthora infestans, 144 h, read-out: Percent Disease Control, Test B
[4] = compounds without asterisk (application rate not given), 100 = 100% disease control, 0 = no control relative to the controls

| SMILES | Percent Disease Control, Test C ([1]; * tested at 40 ppm) | Percent Disease Control, Test A ([2]; * tested at 40 ppm) | Percent Disease Control, Test B ([3]; * tested at 40 ppm) | Percent Disease Control, Test C [1, 4] | Percent Disease Control, Test A [2, 4] | Percent Disease Control, Test B [3, 4] | also measured |
| --- | --- | --- | --- | --- | --- | --- | --- |
| CC(=O)N1N=C(c2csc(C3CCN(C(=O)Cn4nc(C(F)(F)F)cc4C)CC3)n2)CC1c1ccccc1 (stereo not drawn) [Compound 197] | 90% | 89% | 100% | – | – | – | – |
| Cc1cc(C(F)(F)F)nn1CC(=O)N1CCC(c2nc(C3=NOC(C4OCCO4)C3)cs2)CC1 (stereo not drawn) [Compound 199] | – | – | – | 98% | 91% | 99% | – |
| Cc1cc(C(F)(F)F)nn1CC(=O)N1CCC(c2nc(C3=NOC(C4(C)CO4)C3)cs2)CC1 (stereo not drawn) [Compound 200] | – | – | – | 90% | 80% | 100% | – |
| Cc1ncsc1C1CC(c2csc(C3CCN(C(=O)Cn4nc(C(F)(F)F)cc4C)CC3)n2)=NO1 (stereo not drawn) [Compound 201] | 99% | 99% | 100% | – | – | – | – |
| Cc1cc(C(F)(F)F)nn1CC(=O)N1CCC(c2nc(C3=NOC4c5ccccc5S(=O)(=O)C34)cs2)CC1 (stereo not drawn) [Compound 202] | – | – | – | 98% | 95% | 100% | – |
| Cc1cc(C(F)(F)F)nn1CC(=O)N1CCC(c2nc(-c3ccon3)cs2)CC1 [Compound 203] | 92% | 99% | 100% | – | – | – | – |
| Cc1cc(C(F)(F)F)nn1CC(=O)N1CCC(c2nc(C3=NOC(Oc4ccccc4)C3)cs2)CC1 (stereo not drawn) [Compound 204] | 99% | 99% | 100% | – | – | – | – |
| Cc1ccccc1C1(C)CC(c2csc(C3CCN(C(=O)Cn4nc(C(F)(F)F)cc4C)CC3)n2)=NO1 (stereo not drawn) [Compound 205] | 99% | 99% | 100% | – | – | – | – |
| COc1cccc(OC)c1C1CC(c2csc(C3CCN(C(=O)Cn4nc(C(F)(F)F)cc4C)CC3)n2)=NO1 (stereo not drawn) [Compound 206] | 99% | 99% | 100% | – | – | – | – |
| Cc1cc(C(F)(F)F)nn1CC(=O)N1CCC(c2nc(CN3C(=O)CCC3=O)cs2)CC1 [Compound 207] | – | – | – | 0% | 40% | 83% | – |
| Cc1cc(C(F)(F)F)nn1CC(=O)N1CCC(c2nc(CN3C(=O)OC(C)(C)C3=O)cs2)CC1 [Compound 208] | – | – | – | 0% | 79% | 64% | – |
| Cc1cc(C(F)(F)F)nn1CC(=O)N1CCC(c2nc(C3=NOC4(c5ccccc5)CCCCC34)cs2)CC1 (stereo not drawn) [Compound 209] | 90% | 99% | 100% | – | – | – | – |
| Cc1cc(C(F)(F)F)nn1CC(=O)N1CCC(c2nc(-c3cc(-c4ccccc4C(=O)O)on3)cs2)CC1 [Compound 210] | – | – | – | 83% | 91% | 100% | – |
| Cc1cc(C(F)(F)F)nn1CC(=O)N1CCC(c2nc(C3=NOC(OC(C)(C)C)C3)cs2)CC1 (stereo not drawn) [Compound 211] | 99% | 100% | 100% | – | – | – | – |
| Cc1cc(C(F)(F)F)nn1CC(=O)N1CCC(c2nc(C3=NOC4(CCN(c5ccccc5)CC4)C3)cs2)CC1 [Compound 212] | 99% | 98% | 100% | – | – | – | – |
| Cc1cc(C(F)(F)F)nn1CC(=O)N1CCC(c2nc(C3=NOC(N4CCOC4=O)C3)cs2)CC1 (stereo not drawn) [Compound 213] | 98% | 94% | 100% | – | – | – | – |

| SMILES | Percent Disease Control, Test C ([1]; * tested at 40 ppm) | Percent Disease Control, Test A ([2]; * tested at 40 ppm) | Percent Disease Control, Test B ([3]; * tested at 40 ppm) | Percent Disease Control, Test C [1, 4] | Percent Disease Control, Test A [2, 4] | Percent Disease Control, Test B [3, 4] | also measured |
| --- | --- | --- | --- | --- | --- | --- | --- |
| Cc1cc(C(F)(F)F)nn1CC(=O)N1CCC(c2nc(C3=NO[C@@H](c4c(F)cccc4F)C3)cs2)CC1 [Compound 214, 1-[4-[4-[(5R)-5-(2,6-difluorophenyl)-4,5-dihydro-3-isoxazolyl]-2-thiazolyl]-1-piperidinyl]-2-[5-methyl-3-(trifluoromethyl)-1H-pyrazol-1-yl]ethanone] | – | – | – | – | – | – | pest or weed control at 40 ppm [1]: 99%; pest or weed control at 40 ppm ([2]; * tested at 40 ppm): 100%; pest or weed control at 40 ppm [3]: 100% |
| Cc1cc(C(F)(F)F)nn1CC(=O)N1CCC(c2nc(C3=NOC(N4C(=O)CCC4=O)C3)cs2)CC1 (stereo not drawn) [Compound 215] | 99% | 99% | 100% | – | – | – | – |
| Cc1cc(C(F)(F)F)nn1CC(=O)N1CCC(c2nc(C3=NOC(NC(=O)c4ccccc4C(=O)[O-])C3)cs2)CC1.[Na+] (stereo not drawn) [Compound 216] | 99% | 100% | 100% | – | – | – | – |
| Cc1cc(C(F)(F)F)nn1CC(=O)N1CC=C(c2nc(C3=NOC(c4ccccc4)C3)cs2)CC1 (stereo not drawn) [Compound 217, 1-[4-[4-(4,5-dihydro-5-phenyl-3-isoxazolyl)-2-thiazolyl]-3,6-dihydro-1(2H)-pyridinyl]-2-[5-methyl-3-(trifluoromethyl)-1H-pyrazol-1 yl]ethanone] | – | – | – | – | – | – | pest or weed control at 40 ppm [1]: 99%; pest or weed control at 40 ppm ([2]; * tested at 40 ppm): 95%; pest or weed control at 40 ppm [3]: 100% |
| Cc1cc(C(F)(F)F)nn1CC(=O)N1CCC(c2nc(C3=NOC4(C)C(=O)c5ccccc5C(O)=C34)cs2)CC1 (stereo not drawn) [Compound 218] | 47% | 73% | 63% | – | – | – | – |
| Cc1cc(C(F)(F)F)nn1CC(=O)N1CCC(c2nc(C3=NOC(c4nc5ccccc5n4C)C3)cs2)CC1 (stereo not drawn) [Compound 219] | – | – | – | 99% | 100% | 100% | – |
| COC(=O)c1ccccc1C1CC(c2csc(C3CCN(C(=O)Cn4nc(C(F)(F)F)cc4C)CC3)n2)=NO1 (stereo not drawn) [Compound 221] | – | – | – | 99% | 100% | 100% | – |
| Cc1cc(C(F)(F)F)nn1CC(=O)N1CCC(c2nc(C3=NOC(N4C(=O)C(=O)c5ccccc54)C3)cs2)CC1 (stereo not drawn) [Compound 222] | – | – | – | 100% | 100% | 100% | – |
| Cc1cc(C(F)(F)F)nn1CC(=O)N1CCC(c2nc(C3=NOC(N4C(=O)OC(C)(C)C4=O)C3)cs2)CC1 (stereo not drawn) [Compound 223] | – | – | – | 100% | 100% | 100% | – |
| C=CN1C(=O)C2ON=C(c3csc(C4CCN(C(=O)Cn5nc(C(F)(F)F)cc5C)CC4)n3)C2C1=O (stereo not drawn) [Compound 224] | – | – | – | 0% | 0% | 63% | – |
| Cc1cc(C(F)(F)F)nn1CC(=O)N1CCC(c2nc(C3=NOC(C(=O)N4CCOCC4)C3)cs2)CC1 (stereo not drawn) [Compound 226] | – | – | – | 99% | 83% | 100% | – |
| CCC(=O)N1N=C(c2csc(C3CCN(C(=O)Cn4nc(C(F)(F)F)cc4C)CC3)n2)OC12CCCc1ccccc12 (stereo not drawn) [Compound 227] | – | – | – | 100% | 100% | 100% | – |
| Cc1cc(C(F)(F)F)nn1CC(=O)N1CCC(c2nc(C3=NN(C(=O)C(C)C)C4(CCCc5ccccc54)O3)cs2)CC1 (stereo not drawn) [Compound 228] | – | – | – | 100% | 99% | 100% | – |
| O=C(Cn1nc(C(F)(F)F)cc1Cl)N1CCC(c2nc(C3=NO[C@]4(CCc5ccccc54)C3)cs2)CC1 [Compound 232, 2-[5-chloro-3-(trifluoromethyl)-1H-pyrazol-1-yl]-1-[4-[4-[(1R)-2,3-dihydrospiro[1-indene-1,5′(4′H)-isoxazol]-3′-yl]-2-thiazolyl]-1-piperidinyl]ethanone] | – | – | – | – | – | – | Percent Disease Control, Test C ([1]; ** tested at l0 ppm): 100%; Percent Disease Control, Test A ([2]; ** tested at l0 ppm): 100%; Percent Disease Control, Test B ([3]; ** tested at l0 ppm): 100% |
| Cc1cc(C(F)(F)F)nn1CC(=O)N1CCC(c2nc(C3=NOC(N4Cc5ccccc5C4=O)C3)cs2)CC1 (stereo not drawn) [Compound 233] | 100% | 100% | 100% | – | – | – | – |
| Cc1cc(C(F)(F)F)nn1CC(=O)N1CCC(c2nc(C3=NOC(N4C(=O)CN(C)C4=O)C3)cs2)CC1 (stereo not drawn) [Compound 234] | 100% | 99% | 100% | – | – | – | – |

From patent US9920030B2 (priority 2006, dated 2018)
